Results from the supplement of paper PMC10307832.

Columns and labels:
Assay in all cases: relative viability (nuclei count vs DMSO), 5 days (fraction); higher = more cells survive
[1] = compound: C[C@@]1(C(=O)Nc2ccc(F)nc2)CCCN1c1nc(Nc2cc(C3CC3)n[nH]2)c2cccn2n1 + CCNC(=O)c1noc(-c2cc(C(C)C)c(O)cc2O)c1-c1ccc(CN2CCOCC2)cc1 [Luminespib] (partner 0.01 µM)
Method in brief: (§1)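 Relative viability is defined as nuclei in treated wells over nuclei in vehicle wells. Duplicate plates were run and medians reported. Lung cancer cell lines in 1536-well plates were dosed by pin tool one day after seeding, with one drug or with a fixed anchor-drug dose plus five library-drug doses (not always all listed) in √10 steps, and nuclei were counted after 5 days.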

[2] = compound: C[C@@]1(C(=O)Nc2ccc(F)nc2)CCCN1c1nc(Nc2cc(C3CC3)n[nH]2)c2cccn2n1 + COc1cccc2cc(-c3nc([C@H]4CC[C@H](C(=O)O)CC4)n4ncnc(N)c34)[nH]c12 [OSI-027] (partner 0.5 µM)
Method in brief: as §1

[3] = compound: CC1(C)CNc2cc(NC(=O)c3cccnc3NCc3ccncc3)ccc21 [Motesanib] + N=C(N)NC(=N)NCCc1ccccc1 [Phenformin] (partner 250 µM)
Method in brief: as §1

[4] = compound: C[C@@]1(C(=O)Nc2ccc(F)nc2)CCCN1c1nc(Nc2cc(C3CC3)n[nH]2)c2cccn2n1 + CC(=O)c1c(C)c2cnc(Nc3ccc(N4CCNCC4)cn3)nc2n(C2CCCC2)c1=O [Palbociclib] (partner 0.5 µM)
Method in brief: as §1

Cell Line: UMC-11
- relative viability ([1]; first compound 0.04 µM): 0.94
- relative viability ([1]; first compound 0.1265 µM): 1.01
- relative viability ([1]; first compound 0.4 µM): 0.968
- relative viability ([1]; first compound 1.265 µM): 0.726
- relative viability ([2]; first compound 0.04 µM): 0.531
- relative viability ([2]; first compound 0.1265 µM): 0.416
- relative viability ([2]; first compound 0.4 µM): 0.485
- relative viability ([2]; first compound 1.265 µM): 0.37
- relative viability ([3]; first compound 0.01 µM): 0.29
- relative viability ([3]; first compound 0.03162 µM): 0.33
- relative viability ([3]; first compound 0.1 µM): 0.324
- relative viability ([3]; first compound 0.3162 µM): 0.33
- relative viability ([3]; first compound 1 µM): 0.345
- relative viability ([4]; first compound 0.04 µM): 0.31
- relative viability ([4]; first compound 0.1265 µM): 0.312
- relative viability ([4]; first compound 0.4 µM): 0.32
- relative viability ([4]; first compound 1.265 µM): 0.273
